Measurements: patent publication US9764046B2, “Labeling composition for intraocular tissue, labeling method of intraocular tissue, and screening method” (CANON KABUSHIKI KAISHA, priority 2008, dated 2017)

How the values were obtained:
[1] = test system: intraocular tissue (retinal tissue incl. photoreceptor cell layer, vitreous body) of Zebrafish 7-day-old embryo; experiment: Staining of intraocular tissue of Zebrafish fry by exposure to staining liquid, ocular tissue section observed by confocal microscope; type: in vivo; conditions: Zebrafish 7 dpf fry, 1 μg/mL, 1 hour exposure, fixed ocular section
[2] = Excitation and fluorescence wavelengths by fluorescence spectrometer FL4500; type: physicochemical; conditions: in nm (unit assumed)
[3] = aqueous solution: 10 mg/mL DMSO solution diluted to 1/500 with purified water (Examples 1 to 94)

Row | Structure (SMILES) | λem (fluorescence wavelength) [2, 3] | λex (excitation wavelength) [2, 3] | Staining ability [1] | λem (fluorescence wavelength) [2] | λex (excitation wavelength) [2] | Stained site [1]
1 | Cn1c(=O)cc2c3c(c(NC4CCCCC4)ccc31)C(=O)c1ccccc1-2 [Compound 1] | 619 | 599 | ++ | – | – | –
2 | CCCCCC(CC)Nc1ccc2c3c(cc(=O)n2C)-c2ccccc2C(=O)c13 (stereo not drawn) [Compound 2] | 553 | 486 | +++ | – | – | –
3 | Cn1c(=O)cc2c3c(c(NCc4ccccc4)ccc31)C(=O)c1ccccc1-2 [Compound 3] | 556 | 480 | ++ | – | – | –
4 | Cn1/c(=C/C=C/C2=[N+](CCCS(=O)(=O)[O-])CCS2)oc(=O)/c1=C/C=C1\SCCN1CCCS(=O)(=O)[O-].[Na+] [Compound 14] | – | – | ++ | 617 | 588 | –
5 | CCN1/C(=C\C=C\C2=[N+](CC)c3ccccc3C23CCCCC3)C2(CCCCC2)c2ccccc21.[I-] [Compound 15] | 569 | 496 | +++ | – | – | –
6 | CCN(CC)CC.O=S(=O)([O-])CCC[n+]1c(/C=C/C=C2\Sc3ccccc3N2CCCS(=O)(=O)O)sc2ccccc21 [Compound 19] | 576 | 545 | ++ | – | – | 1
7 | CCC(/C=C1\Sc2ccccc2N1CC)=C\c1sc2ccccc2[n+]1CC.[I-] [Compound 20] | 567 | 555 | ++ | – | – | 1
8 | CCC(/C=C1\Sc2c(ccc3ccccc23)N1CC)=C\c1sc2c3ccccc3ccc2[n+]1CC.[I-] [Compound 21] | 377 | 334 | ++ | – | – | –
9 | CCN1C=C/C(=C\C=C\c2oc3ccccc3[n+]2CC)c2ccccc21.[I-] [Compound 22] | 620 | 571 | ++ | – | – | 1
10 | O=C(O)CN1/C(=C/C2=C(Cl)C(=C/c3sc4ccccc4[n+]3CC(=O)O)/CCC2)Sc2ccccc21.[Br-] [Compound 25] | 671 | 635 | ++ | – | – | 1
11 | CCCCCN1/C(=C/C=C/c2oc3ccccc3[n+]2CCCCC)Oc2ccccc21.[I-] [Compound 29] | 509 | 474 | ++ | – | – | –
12 | O=C(O)CCN1/C(=C/C2=C(Cl)C(=C/c3sc4ccccc4[n+]3CCC(=O)O)/CCC2)Sc2ccccc21.[I-] [Compound 31] | 664 | 495 | ++ | – | – | 2
13 | CCN1C(=O)/C(=c2\s/c(=C/c3ccc(N(c4ccccc4)c4ccc5c(c4)C(C)(C)c4ccccc4-5)cc3)c(=O)n2CC(=O)O)SC1=S [Compound 32] | 640 | 558 | ++ | – | – | –
14 | COc1ccc(N2c3ccc(/C=C4\SC(=S)N(CC(=O)O)C4=O)cc3[C@@H]3CCC[C@@H]32)cc1 [Compound 34] | 648 | 571 | ++ | – | – | –
15 | O=C(O)CN1C(=O)/C(=C\c2cc(Br)c3c(c2)[C@@H]2CCC[C@@H]2N3c2ccc(Br)cc2)SC1=S [Compound 38] | 609 | 482 | ++ | – | – | –
16 | CCN1C(=S)S/C(=c2/s/c(=C/c3cc(Br)c4c(c3)[C@@H]3CCC[C@@H]3N4c3ccc(Br)cc3)c(=O)n2CC(=O)O)C1=S [Compound 40] | 671 | 559 | ++ | – | – | –
17 | CCN1C(=O)/C(=c2\s/c(=C/c3ccc4c(c3)[C@@H]3CCC[C@@H]3N4c3ccc(OC)cc3)c(=O)n2CC(=O)O)SC1=S [Compound 41] | 679 | 582 | ++ | – | – | –
18 | COc1ccc(N2c3ccc(/C=C4/SC(=S)N(CCC(=O)O)C4=O)cc3C3CCCC32)cc1 (stereo not drawn) [Compound 44] | 651 | 564 | ++ | – | – | –
19 | O=C(O)C1=NN(c2ccccc2)C(=O)/C1=C\c1ccc2c(c1)C1CCCC1N2c1ccc(Cc2ccccc2)cc1 (stereo not drawn) [Compound 45] | 586 | 481 | ++ | – | – | –
20 | O=C(O)CCN1C(=O)/C(=C\c2ccc3c(c2)C2CCCC2N3Cc2ccccc2)SC1=S (stereo not drawn) [Compound 47] | 611 | 522 | ++ | – | – | –
21 | COc1ccc2cc(N3c4ccc(/C=C5\C(=O)N(c6ccc(C(=O)O)cc6)N=C5C)cc4C4CCCC43)ccc2c1 (stereo not drawn) [Compound 49] | 649 | 569 | ++ | – | – | –

More lines, main results first:

Row | λem (fluorescence wavelength) [2, 3] | λex (excitation wavelength) [2, 3] | Structure (SMILES) | Staining ability [1] | λem (fluorescence wavelength) [2] | λex (excitation wavelength) [2] | Stained site [1]
22 | 560 | 473 | O=C1C=Cc2cc(S(=O)(=O)O)cc(S(=O)(=O)O)c2/C1=N/Nc1ccc(S(=O)(=O)O)c2ccccc12 [Compound 4] | ++ | – | – | –
23 | 564 | 459 | CCC(/C=C1\Oc2ccc(-c3ccccc3)cc2N1CC)=C\c1oc2ccc(-c3ccccc3)cc2[n+]1CC.[I-] [Compound 17] | ++ | – | – | 1
24 | 692 | 609 | CN(C)c1ccc(/C=C/C=C/c2sc3ccccc3[n+]2CC(=O)O)cc1.[Br-] [Compound 24] | ++ | – | – | 1
25 | 715 | 679 | CCN1C=C/C(=C\C=C\c2cc[n+](CC)c3ccccc23)c2ccccc21.[I-] [Compound 26] | ++ | – | – | 2
26 | 575 | 485 | CCN1/C(=C/C=C/c2sc3ccccc3[n+]2CC)Sc2ccccc21.[I-] [Compound 27] | ++ | – | – | 1
27 | 628 | 512 | CC1(C)c2ccccc2-c2ccc(N(c3ccccc3)c3ccc(/C=C4/SC(=S)N(CC(=O)O)C4=O)cc3)cc21 [Compound 33] | ++ | – | – | –
28 | 655 | 535 | O=C(O)CN1C(=O)/C(=C/c2ccc3c(c2)[C@@H]2CCC[C@@H]2N3c2ccc(C=C(c3ccccc3)c3ccccc3)cc2)SC1=S [Compound 35] | ++ | – | – | –
29 | 633 | 531 | O=C(O)CN1C(=O)/C(=C\c2ccc3c(c2)[C@@H]2CCC[C@@H]2N3c2ccccc2)SC1=S [Compound 37] | +++ | – | – | –
30 | 657 | 576 | CCN1S/C(=c2\s/c(=C/c3ccc4c(c3)[C@@H]3CCC[C@@H]3N4Cc3ccccc3)c(=O)n2CC(=O)O)SC1=S [Compound 39] | ++ | – | – | –
31 | 580 | 482 | CCOC(=O)CN1C(=O)/C(=C\c2cc(Br)c3c(c2)C2CCCC2N3c2ccc(Br)cc2)SC1=S (stereo not drawn) [Compound 50] | ++ | – | – | –
